# Measurements published in publication PMC8550792, “Evolution of kinase polypharmacology across HSP90 drug discovery” (Cell Chemical Biology, 2021).
# What was measured:
# Test in all cases: biochemical
# Assay type in all cases: biochemical
# 382 unique human kinases [1] = biological target: T1, 382 unique human kinases (Homo sapiens, UniProt O95747); settings: kinase OSR1/OXSR1, compound 10 uM; for remaining activity at 10 µM: read-out: % Enzyme Activity (relative to DMSO controls)
# T1 construct: purchased Reaction Biology (HotSpot contract assay)
# T1 sequence (O95747 whole entry): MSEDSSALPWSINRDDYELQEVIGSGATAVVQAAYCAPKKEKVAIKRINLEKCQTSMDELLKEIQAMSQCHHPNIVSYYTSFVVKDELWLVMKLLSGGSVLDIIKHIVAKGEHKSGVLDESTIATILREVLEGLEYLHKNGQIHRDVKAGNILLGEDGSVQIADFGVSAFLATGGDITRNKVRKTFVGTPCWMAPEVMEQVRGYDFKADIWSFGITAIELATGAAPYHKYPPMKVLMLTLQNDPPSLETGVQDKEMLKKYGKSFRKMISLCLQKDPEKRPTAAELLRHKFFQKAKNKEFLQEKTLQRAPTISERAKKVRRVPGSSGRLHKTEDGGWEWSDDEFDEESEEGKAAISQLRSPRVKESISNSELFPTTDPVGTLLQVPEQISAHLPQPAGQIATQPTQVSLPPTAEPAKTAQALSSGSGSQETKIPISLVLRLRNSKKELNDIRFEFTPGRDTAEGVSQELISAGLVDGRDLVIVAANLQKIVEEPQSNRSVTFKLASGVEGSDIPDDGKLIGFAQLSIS
# 382 unique human kinases [2] = biological target: T2, 382 unique human kinases (Homo sapiens, UniProt P21802, N549H); settings: kinase FGFR2 (N549H), compound 10 uM; for remaining activity at 10 µM: read-out: % Enzyme Activity (relative to DMSO controls)
# T2 construct: purchased Reaction Biology (HotSpot contract assay)
# T2 sequence (P21802 22-821 N549H): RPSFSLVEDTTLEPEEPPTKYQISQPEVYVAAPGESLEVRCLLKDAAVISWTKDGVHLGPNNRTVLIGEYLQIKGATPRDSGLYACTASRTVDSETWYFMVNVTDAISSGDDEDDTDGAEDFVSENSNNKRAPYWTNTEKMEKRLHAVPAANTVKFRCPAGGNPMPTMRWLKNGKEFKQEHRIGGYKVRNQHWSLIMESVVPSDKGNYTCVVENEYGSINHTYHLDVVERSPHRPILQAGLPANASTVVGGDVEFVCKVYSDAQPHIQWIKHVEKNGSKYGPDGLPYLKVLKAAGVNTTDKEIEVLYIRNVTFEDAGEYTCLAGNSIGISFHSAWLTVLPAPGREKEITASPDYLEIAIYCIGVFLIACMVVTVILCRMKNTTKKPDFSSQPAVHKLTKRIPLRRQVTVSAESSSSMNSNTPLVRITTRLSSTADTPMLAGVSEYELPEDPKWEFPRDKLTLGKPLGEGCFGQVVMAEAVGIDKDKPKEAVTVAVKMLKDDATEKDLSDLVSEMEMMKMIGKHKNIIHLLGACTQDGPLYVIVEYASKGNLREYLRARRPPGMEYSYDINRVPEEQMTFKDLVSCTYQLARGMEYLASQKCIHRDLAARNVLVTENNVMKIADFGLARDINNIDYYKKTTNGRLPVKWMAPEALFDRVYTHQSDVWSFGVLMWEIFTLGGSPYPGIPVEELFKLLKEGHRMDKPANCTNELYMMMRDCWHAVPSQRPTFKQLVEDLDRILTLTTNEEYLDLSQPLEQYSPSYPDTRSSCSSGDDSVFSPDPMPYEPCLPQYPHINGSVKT
# 382 unique human kinases [3] = biological target: T3, 382 unique human kinases (Homo sapiens, UniProt P42679); settings: kinase CTK/MATK, compound 10 uM; for remaining activity at 10 µM: read-out: % Enzyme Activity (relative to DMSO controls)
# T3 construct: purchased Reaction Biology (HotSpot contract assay)
# T3 sequence (P42679 1-507): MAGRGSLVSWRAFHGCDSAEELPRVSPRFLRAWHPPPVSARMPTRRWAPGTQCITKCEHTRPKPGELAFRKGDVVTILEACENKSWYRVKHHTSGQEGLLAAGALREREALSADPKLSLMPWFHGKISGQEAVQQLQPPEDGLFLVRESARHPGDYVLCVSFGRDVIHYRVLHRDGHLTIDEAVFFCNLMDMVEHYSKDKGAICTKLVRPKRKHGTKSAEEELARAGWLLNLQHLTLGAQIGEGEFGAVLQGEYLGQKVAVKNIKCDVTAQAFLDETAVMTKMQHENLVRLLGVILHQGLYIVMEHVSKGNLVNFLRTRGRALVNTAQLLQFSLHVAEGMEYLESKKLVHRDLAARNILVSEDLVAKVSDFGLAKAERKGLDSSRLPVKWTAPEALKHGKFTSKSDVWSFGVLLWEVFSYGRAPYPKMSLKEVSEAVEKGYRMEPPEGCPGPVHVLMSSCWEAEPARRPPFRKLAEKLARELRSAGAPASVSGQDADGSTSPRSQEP
# 382 unique human kinases [4] = biological target: T4, 382 unique human kinases (Homo sapiens, UniProt P42680); settings: TEC, 10 uM; for remaining activity at 10 µM: read-out: % Enzyme Activity (relative to DMSO controls)
# T4 construct: purchased Reaction Biology (HotSpot contract assay)
# T4 sequence (P42680 1-631): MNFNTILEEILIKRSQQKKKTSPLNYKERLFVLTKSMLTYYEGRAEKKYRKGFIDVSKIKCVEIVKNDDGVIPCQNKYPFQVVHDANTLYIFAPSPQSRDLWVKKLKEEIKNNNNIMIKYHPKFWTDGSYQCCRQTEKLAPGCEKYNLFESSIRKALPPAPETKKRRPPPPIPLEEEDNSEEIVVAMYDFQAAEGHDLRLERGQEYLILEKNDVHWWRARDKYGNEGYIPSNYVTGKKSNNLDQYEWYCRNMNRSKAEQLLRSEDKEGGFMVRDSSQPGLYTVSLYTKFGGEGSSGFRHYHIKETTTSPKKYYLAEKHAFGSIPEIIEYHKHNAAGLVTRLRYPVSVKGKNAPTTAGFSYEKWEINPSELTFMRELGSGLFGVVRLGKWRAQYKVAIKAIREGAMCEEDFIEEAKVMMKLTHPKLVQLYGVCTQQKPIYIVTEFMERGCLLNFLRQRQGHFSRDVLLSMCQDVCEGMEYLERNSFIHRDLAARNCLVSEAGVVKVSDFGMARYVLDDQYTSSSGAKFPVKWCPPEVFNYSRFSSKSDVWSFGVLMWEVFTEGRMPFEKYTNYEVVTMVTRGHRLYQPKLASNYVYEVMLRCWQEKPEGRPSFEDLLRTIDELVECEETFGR
# 382 unique human kinases [5] = biological target: T5, 382 unique human kinases (Homo sapiens, UniProt Q02779); settings: kinase MLK2/MAP3K10, compound 10 uM; for remaining activity at 10 µM: read-out: % Enzyme Activity (relative to DMSO controls)
# T5 construct: purchased Reaction Biology (HotSpot contract assay)
# T5 sequence (Q02779 whole entry): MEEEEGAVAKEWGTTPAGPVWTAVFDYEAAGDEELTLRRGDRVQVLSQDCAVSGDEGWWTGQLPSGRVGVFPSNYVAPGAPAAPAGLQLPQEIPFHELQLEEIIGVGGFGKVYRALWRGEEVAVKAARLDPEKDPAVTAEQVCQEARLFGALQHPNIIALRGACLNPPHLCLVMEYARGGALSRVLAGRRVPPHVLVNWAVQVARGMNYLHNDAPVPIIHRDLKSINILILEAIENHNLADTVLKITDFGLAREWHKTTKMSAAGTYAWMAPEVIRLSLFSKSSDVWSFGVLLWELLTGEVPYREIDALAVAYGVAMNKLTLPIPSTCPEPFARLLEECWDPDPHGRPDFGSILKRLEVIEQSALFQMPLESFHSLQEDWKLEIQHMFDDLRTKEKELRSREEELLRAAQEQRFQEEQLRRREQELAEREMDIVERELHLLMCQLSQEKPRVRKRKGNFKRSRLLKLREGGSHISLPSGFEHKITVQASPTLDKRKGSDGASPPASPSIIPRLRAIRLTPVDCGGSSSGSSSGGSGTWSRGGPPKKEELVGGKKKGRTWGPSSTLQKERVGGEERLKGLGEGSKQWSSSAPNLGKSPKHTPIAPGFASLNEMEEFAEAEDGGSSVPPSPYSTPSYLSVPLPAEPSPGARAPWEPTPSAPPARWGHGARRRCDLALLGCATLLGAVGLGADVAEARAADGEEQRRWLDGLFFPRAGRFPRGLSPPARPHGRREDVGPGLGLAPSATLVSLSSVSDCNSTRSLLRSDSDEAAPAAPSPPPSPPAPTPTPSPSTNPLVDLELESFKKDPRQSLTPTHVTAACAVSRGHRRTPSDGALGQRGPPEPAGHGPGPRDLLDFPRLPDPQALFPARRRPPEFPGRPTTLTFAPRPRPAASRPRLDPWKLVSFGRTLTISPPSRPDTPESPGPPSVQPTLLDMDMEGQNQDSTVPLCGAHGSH
# 382 unique human kinases [6] = biological target: T6, 382 unique human kinases (Homo sapiens, UniProt Q7L7X3); settings: kinase TAOK1, compound 10 uM; for remaining activity at 10 µM: read-out: % Enzyme Activity (relative to DMSO controls)
# T6 construct: purchased Reaction Biology (HotSpot contract assay)
# T6 sequence (Q7L7X3 1-1001): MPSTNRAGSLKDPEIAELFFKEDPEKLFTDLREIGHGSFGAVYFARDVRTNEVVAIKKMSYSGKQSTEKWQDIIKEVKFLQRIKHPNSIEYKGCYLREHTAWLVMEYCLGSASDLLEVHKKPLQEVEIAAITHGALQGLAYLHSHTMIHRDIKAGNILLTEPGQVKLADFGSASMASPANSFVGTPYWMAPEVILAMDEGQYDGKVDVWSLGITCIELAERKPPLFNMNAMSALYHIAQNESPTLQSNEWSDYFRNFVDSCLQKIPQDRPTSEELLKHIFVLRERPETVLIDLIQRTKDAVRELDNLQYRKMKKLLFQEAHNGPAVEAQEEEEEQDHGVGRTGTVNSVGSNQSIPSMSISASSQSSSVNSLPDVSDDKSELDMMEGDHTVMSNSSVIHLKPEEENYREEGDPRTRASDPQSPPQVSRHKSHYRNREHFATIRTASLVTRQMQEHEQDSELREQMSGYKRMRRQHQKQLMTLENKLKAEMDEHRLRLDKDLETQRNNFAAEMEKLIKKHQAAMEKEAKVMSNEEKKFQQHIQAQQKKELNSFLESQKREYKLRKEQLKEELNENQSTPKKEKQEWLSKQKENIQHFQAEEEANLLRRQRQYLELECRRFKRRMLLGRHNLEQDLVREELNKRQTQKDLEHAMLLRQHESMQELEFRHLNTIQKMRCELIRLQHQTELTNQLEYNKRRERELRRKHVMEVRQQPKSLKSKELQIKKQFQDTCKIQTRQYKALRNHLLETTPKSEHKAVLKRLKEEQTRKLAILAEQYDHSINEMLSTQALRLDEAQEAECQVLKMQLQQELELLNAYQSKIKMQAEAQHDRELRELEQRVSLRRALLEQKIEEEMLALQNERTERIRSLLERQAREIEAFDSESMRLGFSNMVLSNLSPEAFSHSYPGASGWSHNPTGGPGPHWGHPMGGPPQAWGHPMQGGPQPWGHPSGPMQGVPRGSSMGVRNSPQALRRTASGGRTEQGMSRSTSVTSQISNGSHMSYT
# 382 unique human kinases [7] = biological target: T7, 382 unique human kinases (Homo sapiens, UniProt P08581, D1228H); settings: c-MET (D1228H), 10 uM; for remaining activity at 10 µM: read-out: % Enzyme Activity (relative to DMSO controls)
# T7 construct: purchased Reaction Biology (HotSpot contract assay)
# 382 unique human kinases [8] = biological target: T8, 382 unique human kinases (Homo sapiens, UniProt P17252); settings: PKCa, 10 uM; for remaining activity at 10 µM: read-out: % Enzyme Activity (relative to DMSO controls)
# T8 construct: purchased Reaction Biology (HotSpot contract assay)
# 382 unique human kinases [9] = biological target: T9, 382 unique human kinases (Homo sapiens, UniProt Q05655); settings: PKCd, 10 uM; for remaining activity at 10 µM: read-out: % Enzyme Activity (relative to DMSO controls)
# T9 construct: purchased Reaction Biology (HotSpot contract assay)
# T9 sequence (Q05655 whole entry): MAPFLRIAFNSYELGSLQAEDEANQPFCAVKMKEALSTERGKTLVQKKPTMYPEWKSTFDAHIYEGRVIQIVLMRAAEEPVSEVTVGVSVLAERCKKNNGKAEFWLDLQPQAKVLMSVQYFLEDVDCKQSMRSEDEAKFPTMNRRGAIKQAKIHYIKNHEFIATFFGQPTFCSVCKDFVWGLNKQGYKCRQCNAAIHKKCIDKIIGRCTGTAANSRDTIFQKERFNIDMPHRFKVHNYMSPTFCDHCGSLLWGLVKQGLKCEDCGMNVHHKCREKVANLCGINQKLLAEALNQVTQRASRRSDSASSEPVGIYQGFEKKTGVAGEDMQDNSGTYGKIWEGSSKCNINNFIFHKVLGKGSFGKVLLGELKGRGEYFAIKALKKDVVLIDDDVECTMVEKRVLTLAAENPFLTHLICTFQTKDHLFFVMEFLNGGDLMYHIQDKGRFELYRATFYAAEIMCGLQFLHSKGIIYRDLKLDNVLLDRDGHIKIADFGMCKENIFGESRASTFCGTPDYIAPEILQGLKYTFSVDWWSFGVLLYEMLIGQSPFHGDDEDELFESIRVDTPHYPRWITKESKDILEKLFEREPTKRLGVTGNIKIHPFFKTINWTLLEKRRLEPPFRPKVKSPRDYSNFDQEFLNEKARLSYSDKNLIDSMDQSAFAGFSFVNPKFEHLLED
# 382 unique human kinases [10] = biological target: T10, 382 unique human kinases (Homo sapiens, UniProt Q5S007); settings: LRRK2, [ATP] 30 µM, compound 10 uM; for remaining activity at 10 µM: read-out: % Enzyme Activity (relative to DMSO controls)
# T10 construct: purchased Reaction Biology (HotSpot contract assay)
# 382 unique human kinases [11] = biological target: T11, 382 unique human kinases (Homo sapiens, UniProt Q9UQM7); settings: CAMK2a, 10 uM; for remaining activity at 10 µM: read-out: % Enzyme Activity (relative to DMSO controls)
# T11 construct: purchased Reaction Biology (HotSpot contract assay)
# T11 sequence (Q9UQM7 whole entry): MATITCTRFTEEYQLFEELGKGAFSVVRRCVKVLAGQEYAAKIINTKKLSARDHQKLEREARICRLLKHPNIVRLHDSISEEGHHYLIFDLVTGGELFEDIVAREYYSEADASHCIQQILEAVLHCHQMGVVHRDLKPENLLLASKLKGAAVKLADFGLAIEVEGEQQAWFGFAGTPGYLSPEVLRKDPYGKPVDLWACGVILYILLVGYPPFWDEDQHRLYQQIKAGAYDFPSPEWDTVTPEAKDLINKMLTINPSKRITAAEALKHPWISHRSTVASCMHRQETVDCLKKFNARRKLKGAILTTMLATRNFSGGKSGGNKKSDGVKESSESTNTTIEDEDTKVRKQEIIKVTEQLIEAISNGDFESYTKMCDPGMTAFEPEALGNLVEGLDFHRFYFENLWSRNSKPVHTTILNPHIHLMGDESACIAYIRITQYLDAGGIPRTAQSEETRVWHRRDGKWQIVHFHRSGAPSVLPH
Structure (SMILES),remaining activity at 10 µM (382 unique human kinases [1]) [%],remaining activity at 10 µM (382 unique human kinases [2]) [%],remaining activity at 10 µM (382 unique human kinases [3]) [%],remaining activity at 10 µM (382 unique human kinases [4]) [%],remaining activity at 10 µM (382 unique human kinases [5]) [%],remaining activity at 10 µM (382 unique human kinases [6]) [%],remaining activity at 10 µM (382 unique human kinases [7]) [%],remaining activity at 10 µM (382 unique human kinases [8]) [%],remaining activity at 10 µM (382 unique human kinases [9]) [%],remaining activity at 10 µM (382 unique human kinases [10]) [%],remaining activity at 10 µM (382 unique human kinases [11]) [%],also measured
CC(C)c1cc(-c2n[nH]c(=O)n2-c2ccc3c(ccn3C)c2)c(O)cc1O [Ganetespib (STA9090)],82.7,79.3,80,59.7,98.6,88.8,–,–,–,–,–,–
CC(C)c1cc(-c2n[nH]c(=O)n2-c2ccc3c(ccn3C)c2)c(O)cc1O [Ganetespib],–,–,–,–,–,–,98.6,94.5,92,45.9,91.1,–
CCNC(=O)c1noc(-c2cc(C(C)C)c(O)cc2O)c1-c1ccc(CN2CCOCC2)cc1 [Luminespib (AUY-922)],103,107,83.5,97.9,91.1,95,–,–,–,–,–,% Enzyme Activity (relative to DMSO controls) (382 unique human kinases [1]): 102.56%; % Enzyme Activity (relative to DMSO controls) (382 unique human kinases [2]): 106.42%; % Enzyme Activity (relative to DMSO controls) (382 unique human kinases [3]): 80.99%; % Enzyme Activity (relative to DMSO controls) (382 unique human kinases [4]): 96.94%; % Enzyme Activity (relative to DMSO controls) (382 unique human kinases [5]): 89.74%; % Enzyme Activity (relative to DMSO controls) (382 unique human kinases [6]): 92.28%
CCNC(=O)c1noc(-c2cc(C(C)C)c(O)cc2O)c1-c1ccc(CN2CCOCC2)cc1 [Luminespib],–,–,–,–,–,–,92.4,94,96.4,94.8,104,% Enzyme Activity (relative to DMSO controls) (382 unique human kinases [7]): 91.15%; % Enzyme Activity (relative to DMSO controls) (382 unique human kinases [8]): 92.02%; % Enzyme Activity (relative to DMSO controls) (382 unique human kinases [9]): 95.84%; % Enzyme Activity (relative to DMSO controls) (382 unique human kinases [10]): 94.05%; % Enzyme Activity (relative to DMSO controls) (382 unique human kinases [11]): 102.76%
